Measurements: patent publication US10499640B2, “Herbicidal compounds” (SYNGENTA PARTICIPATIONS AG, priority 2014, dated 2019)

Key:
Type in all cases: in vivo
[1] = test system: Zea mays (ZEAMX); assay: Pre-emergence herbicidal activity, glasshouse pot test; settings: Rate 1000 g/Ha; sprayed one day after sowing; evaluated after 13 days; scale 0-5
Procedure: (§1) Seeds of a variety of test species were sown in standard soil in pots. After cultivation for one day (pre-emergence) under controlled conditions in a glasshouse (at 24/16° C., day/night; 14 hours light; 65% humidity), the plants were sprayed with an aqueous spray solution derived from the formulation of the technical active ingredient in acetone/water (50:50) solution containing 0.5% Tween 20 (polyoxyethelyene sorbitan monolaurate, CAS RN 9005-64-5). The test plants were then grown in a glasshouse under controlled conditions (at 24/16° C., day/night; 14 hours light; 65% humidity) and watered twice daily. After 13 days, the test was evaluated (5=total damage to plant; 0=no damage to plant).

[2] = test system: Echinochloa crus-galli (ECHCG); assay: as above; design: key: 5=total damage to plant; 0=no damage to plant; settings: Rate 1000 g/Ha; sprayed one day after sowing; evaluated after 13 days; scale 0-5
Procedure: as §1

[3] = test system: Amaranthus retroflexus (AMARE); assay: as above; design: key: 5=total damage to plant; 0=no damage to plant; settings: Rate 1000 g/Ha; sprayed one day after sowing; evaluated after 13 days; scale 0-5
Procedure: as §1

[4] = test system: Setaria faberi (SETFA); assay: as above; design: key: 5=total damage to plant; 0=no damage to plant; settings: Rate 1000 g/Ha; sprayed one day after sowing; evaluated after 13 days; scale 0-5
Procedure: as §1

[5] = test system: Alopecurus myosuroides (ALOMY); assay: as above; design: key: 5=total damage to plant; 0=no damage to plant; settings: Rate 1000 g/Ha; sprayed one day after sowing; evaluated after 13 days; scale 0-5
Procedure: as §1

[6] = test system: Abutilon theophrasti (ABUTH); assay: as above; design: key: 5=total damage to plant; 0=no damage to plant; settings: Rate 1000 g/Ha; sprayed one day after sowing; evaluated after 13 days; scale 0-5
Procedure: as §1

[7] = test system: Echinochloa crus-galli (ECHCG); assay: Post-emergence herbicidal activity, glasshouse pot test; design: key: 5=total damage to plant; 0=no damage to plant; settings: Rate 1000 g/Ha; sprayed after 8 days cultivation; evaluated after 13 days; scale 0-5
Procedure: (§2) Seeds of a variety of test species were sown in standard soil in pots. After 8 days cultivation (post-emergence) under controlled conditions in a glasshouse (at 24/16° C., day/night; 14 hours light; 65% humidity), the plants were sprayed with an aqueous spray solution derived from the formulation of the technical active ingredient in acetone/water (50:50) solution containing 0.5% Tween 20 (polyoxyethelyene sorbitan monolaurate, CAS RN 9005-64-5). The test plants were then grown in a glasshouse under controlled conditions (at 24/16° C., day/night; 14 hours light; 65% humidity) and watered twice daily. After 13 days, the test was evaluated (5=total damage to plant; 0=no damage to plant).

[8] = test system: Amaranthus retroflexus (AMARE); assay: as above; design: key: 5=total damage to plant; 0=no damage to plant; settings: Rate 1000 g/Ha; sprayed after 8 days cultivation; evaluated after 13 days; scale 0-5
Procedure: as §2

[9] = test system: Zea mays (ZEAMX); assay: as above; design: key: 5=total damage to plant; 0=no damage to plant; settings: Rate 1000 g/Ha; sprayed after 8 days cultivation; evaluated after 13 days; scale 0-5
Procedure: as §2

[10] = test system: Setaria faberi (SETFA); assay: as above; design: key: 5=total damage to plant; 0=no damage to plant; settings: Rate 1000 g/Ha; sprayed after 8 days cultivation; evaluated after 13 days; scale 0-5
Procedure: as §2

[11] = test system: Alopecurus myosuroides (ALOMY); assay: as above; design: key: 5=total damage to plant; 0=no damage to plant; settings: Rate 1000 g/Ha; sprayed after 8 days cultivation; evaluated after 13 days; scale 0-5
Procedure: as §2

[12] = test system: Abutilon theophrasti (ABUTH); assay: as above; design: key: 5=total damage to plant; 0=no damage to plant; settings: Rate 1000 g/Ha; sprayed after 8 days cultivation; evaluated after 13 days; scale 0-5
Procedure: as §2

| SMILES | ZEAMX damage score, application pre-emergence [1] | ECHCG damage score, application pre-emergence [2] | AMARE damage score, application pre-emergence [3] | SETFA damage score, application pre-emergence [4] | ALOMY damage score, application pre-emergence [5] | ABUTH damage score, application pre-emergence [6] | ECHCG damage score, application post-emergence [7] | AMARE damage score, application post-emergence [8] | ZEAMX damage score, application post-emergence [9] | SETFA damage score, application post-emergence [10] | ALOMY damage score, application post-emergence [11] | ABUTH damage score, application post-emergence [12] |
| --- | --- | --- | --- | --- | --- | --- | --- | --- | --- | --- | --- | --- |
| CC(C)(C)c1cc(N2C(=O)N3CCCCC3C2O)no1 (stereo not drawn) [Compound A26] | 3 | 4 | 5 | 4 | 4 | 5 | 5 | 5 | 5 | 5 | 5 | 5 |
| CC1NC(=O)N(c2cc(C(C)(C)C#N)on2)C1O (stereo not drawn) [Compound A7] | 2 | 4 | 5 | 4 | 4 | 5 | 4 | 5 | 3 | 4 | 4 | 5 |
| CON1C(=O)N(c2cc(C(C)(C)F)on2)C(O)C1C (stereo not drawn) [Compound A1, 1-[5-(1-fluoro-1-methyl-ethyl)isoxazol-3-yl]-5-hydroxy-3-methoxy-4-methyl-imidazolidin-2-one] | 2 | 4 | 5 | 4 | 4 | 5 | 5 | 5 | 5 | 5 | 5 | 5 |
| CC1C(O)N(c2cc(C(C)(C)F)on2)C(=O)N1C (stereo not drawn) [Compound A2, 1-[5-(1-fluoro-1-methyl-ethyl)isoxazol-3-yl]-5-hydroxy-3,4-dimethyl-imidazolidin-2-one] | 2 | 4 | 5 | 4 | 4 | 5 | 5 | 5 | 5 | 5 | 5 | 5 |
| CC(C)(C#N)c1cc(N2C(=O)NCC2O)no1 (stereo not drawn) [Compound A8] | 1 | 1 | 5 | 1 | 0 | 5 | 3 | 4 | 1 | 3 | 2 | 5 |
| CN1CC(O)N(c2cc(C(C)(C)F)on2)C1=O (stereo not drawn) [Compound A3] | 2 | 5 | 5 | 4 | 4 | 5 | 5 | 5 | 5 | 5 | 5 | 5 |
| CN1CC(O)N(c2cc(C(C)(C)C#N)on2)C1=O (stereo not drawn) [Compound A4] | 4 | 5 | 5 | 5 | 4 | 5 | 5 | 5 | 5 | 5 | 5 | 5 |
| CC1C(O)N(c2cc(C(C)(C)C#N)on2)C(=O)N1C (stereo not drawn) [Compound A5] | 3 | 5 | 5 | 5 | 4 | 5 | 5 | 5 | 5 | 5 | 5 | 5 |
